Measurements: patent EP0011828A1, “Pharmaceutical combinations including hydantoin derivatives, pharmaceutical formulations containing the combinations and methods of making the formulations” (THE WELLCOME FOUNDATION LIMITED, priority 1978, dated 1980)
Entries after “also recorded” stand apart in the source; their conditions may differ.

Key:
human PRP [1] = assay: ADP-induced aggregation of human PRP, potentiation by theophylline; format: cell-based
Method: [The source words this procedure for another species and says it was used here with some conditions changed.] (§1) Aggregation was induced in rabbit platelet-rich plasma (PRP) by addition of arachidonic acid, and monitored in a Born-type aggregometer. A dose of dipyridamole was selected which caused no inhibition of aggregation when added to the PRP 2 minutes prior to the addition of arachidonic acid. The active compound when added to the PRP 1 minute prior to the addition of arachidonic acid caused a dose-related inhibition of aggregation. The percentage inhibition caused by the active compound was compared in the presence and absence of the selected dose of dipyridamole.
The experiment of Example 12 was repeated using theophylline, another inhibitor of phosphodiesterase, in place of the dipyridamole. […]

[2] = tested on: pentagastrin-induced gastric acid secretion; details: rat, in vivo; cited from earlier work
[3] = tested on: aspirin- induced gastric lesions; details: rats; cited from earlier work
[4] = tested on: rabbit platelet-rich plasma (PRP); assay: Arachidonic acid-induced aggregation in rabbit platelet-rich plasma, Born-type aggregometer; format: cell-based
Method: as §1

platelet aggregation = assay: Inhibition of platelet aggregation (general statement); format: cell-based
[5] = tested on: histamine-induced broncho-constriction; details: cited from earlier work
human PRP [6] = assay: Platelet aggregation in human PRP, potentiation by dipyridamole; format: cell-based; details: dipyridamole combined with 5-(6-carboxyhexyl)-1-(3-hydroxy-3-cyclohexylpropyl)hydantoin

SMILES: Cn1c(=O)c2[nH]cnc2n(C)c1=O [Theophylline, 3,7-dihydro-1,3-dimethyl-1H-purine-2,6-dione, reference compound]
- inhibition at 20 µg/mL (human PRP [1]; Homo sapiens, Theophylline 20 µg/ml alone, read-out: Percentage Inhibition): 7%
- potentiation of the inhibitory effect of the active compound on ADP - induced aggregation (human PRP [1]; theophylline combined with 5-(6-carboxyhexyl)-1-(3-hydroxy-3-cyclohexylpropyl)hydantoin, human PRP): found to potentiate the inhibitory effect

SMILES: CCCCCC(=O)CCN1C(=O)NC(=O)C1CCCCCCC(=O)O (stereo not shown) [5-(6-carboxyhexyl)-1-(3-oxo-octyl)hydantoin]
- inhibition of pentagastrin-induced gastric acid secretion [2]: inhibits pentagastrin-induced gastric acid secretion
- formation of aspirin-induced gastric lesions [3]: reduces the formation of aspirin- induced gastric lesions in rats

SMILES: CCCCCC(=O)CCN1C(=O)N(C)C(=O)C1CCCCCCC(=O)O (stereo not shown) [5-(6-carboxyhexyl)-3-methyl-1-(3-oxo-octyl)hydantoin]
- inhibition of pentagastrin-induced gastric acid secretion [2]: inhibits pentagastrin-induced gastric acid secretion
- formation of aspirin-induced gastric lesions [3]: reduces the formation of aspirin- induced gastric lesions in rats

SMILES: O=C(O)CCCCCCC1C(=O)NC(=O)N1CCCCOc1ccccc1 (stereo not shown) [5-(6-carboxyhexyl)-1-(4-phenoxybutyl) hydantoin]
- inhibition of pentagastrin-induced gastric acid secretion [2]: inhibits pentagastrin-induced gastric acid secretion
- formation of aspirin-induced gastric lesions [3]: reduces the formation of aspirin- induced gastric lesions in rats

SMILES: O=C(O)CCCCCCC1C(=O)NC(=O)N1CCC(O)C1CCCCC1 (stereo not shown) [5-(6-carboxyhexyl)-1-(3-hydroxy-3-cyclohexylpropyl)hydantoin]
- inhibition at 0.05 µg/mL ([4]; Oryctolagus cuniculus, active compound 50 ng/ml alone, added 1 minute before arachidonic acid, read-out: Percentage Inhibition): 37%
- inhibition at 0.075 µg/mL ([4]; Oryctolagus cuniculus, active compound 75 ng/ml alone, read-out: Percentage Inhibition): 66%
- inhibition at 0.1 µg/mL ([4]; Oryctolagus cuniculus, active compound 100 ng/ml alone, read-out: Percentage Inhibition): 100%
- Percentage Inhibition ([4]; active compound 50 ng/ml with Dipyridamole 50 µg/ml): 77
- inhibition of rabbit platelet aggregation (potency in words) ([4]; rabbit platelets, active compound alone): not a particularly potent inhibiton of rabbit platelet aggregation
- inhibition at 0.0005 µg/mL (human PRP [1]; Homo sapiens, active compound 0.5 ng/ml alone, read-out: Percentage Inhibition): 19%
- inhibition at 0.001 µg/mL (human PRP [1]; Homo sapiens, active compound 1 ng/ml alone, read-out: Percentage Inhibition): 55%
- Percentage Inhibition (human PRP [1]; active compound 0.5 ng/ml with Theophylline 20 µg/ml): 51
- Percentage Inhibition (human PRP [1]; active compound 1 ng/ml with Theophylline 20 µg/ml): 70
- inhibitors of platelet aggregation (activity in words) (platelet aggregation): especially active

SMILES: CCCCC(C)(C)C(O)CCN1C(=O)NC(=O)C1CCCCCCC(=O)O (stereo not shown) [5-(6-carboxyhexyl)-1-(3-hydroxy-4,4-dimethyloctyl) hydantoin]
- antagonism of histamine-induced broncho-constriction [5]: antagonises histamine-induced broncho-constriction

SMILES: OCCN(CCO)c1nc(N2CCCCC2)c2nc(N(CCO)CCO)nc(N3CCCCC3)c2n1 [Dipyridamole, 2,2', 2",2'"-(4,8-dipiperidinopy-rimido [5,4-d]pyrimidine-2,6-diyldinitrilo)tetraethanol, reference compound]
- inhibition at 50 µg/mL ([4]; Oryctolagus cuniculus, Dipyridamole 50 µg/ml alone, added 2 minutes before arachidonic acid, read-out: Percentage Inhibition): 0%
- potentiation of the inhibitory activity of the active compound on platelet aggregation ([4]; dipyridamole combined with 5-(6-carboxyhexyl)-1-(3-hydroxy-3-cyclohexylpropyl)hydantoin, rabbit PRP): inhibitory effect of a dose of the active compound in the presence of dipyridamole is approximately equivalent to that caused by twice that dose of the active compound alone; also recorded: produced a potentiation of the anti-aggrcgatory effect of the active compound
- potentiation of the anti-aggregatory effect of the active compound (human PRP [6]): a similar potentiation was observed; also recorded: produced a potentiation of the anti-aggrcgatory effect of the active compound

SMILES: O=C(O)CCCC=CCC1C(=O)NC(=O)N1CCC(O)C1CCCCC1 (stereo not shown) [5-(6-carboxyhex-2-enyl)-1-(3-hydroxy-3-cyclohexylpropyl)hydantoin]
- inhibitors of platelet aggregation (activity in words) (platelet aggregation): especially active

SMILES: CCCCCC(O)CCN1C(=O)NC(=O)C1CCCCCCC(=O)O (stereo not shown) [5-(6-carlJoxy-hexyl)-1-(3-hydroxyoctyl)-hydantoin]
- inhibition of pentagastrin-induced gastric acid secretion [2]: inhibits pentagastrin-induced gastric acid secretion
- formation of aspirin-induced gastric lesions [3]: reduces the formation of aspirin- induced gastric lesions in rats
